Active and inactive are the calls of the source. The calls are words filed in the database; no cut-off is given here.
How the values were obtained:
Mus musculus [1] = test: Effect on IL-4 level in dust-mite-induced BALB/c mouse model of airway inflammation assessed as greater than 2 fold induction at 6 mg/kg, sc administered for 2 weeks and measured 24 hrs post-HDM challenge by MSD multiplex assay; format: functional, organism-based
HBEC3-KT [2] = test: Antiinflammatory activity in human HBEC3-KT cells assessed as effect on MCP1 expression measured after 24 hrs by ELISA relative to control; format: functional, cell-based
Mus musculus [3] = test: Effect on IL-17A level in dust-mite-induced BALB/c mouse model of airway inflammation assessed as greater than 2 fold induction at 6 mg/kg, sc administered for 2 weeks and measured 24 hrs post-HDM challenge by MSD multiplex assay; format: functional, organism-based
Mus musculus [4] = test: Effect on IL-15 level in dust-mite-induced BALB/c mouse model of airway inflammation assessed as greater than 2 fold induction at 6 mg/kg, sc administered for 2 weeks and measured 24 hrs post-HDM challenge by MSD multiplex assay; format: functional, organism-based
Mus musculus [5] = test: Effect on IL-30 level in dust-mite-induced BALB/c mouse model of airway inflammation assessed as greater than 2 fold induction at 6 mg/kg, sc administered for 2 weeks and measured 24 hrs post-HDM challenge by MSD multiplex assay; format: functional, organism-based
HBEC3-KT [6] = test: Antiinflammatory activity in INFgamma-induced MCP1 expressed in human HBEC3-KT cells assessed as fold change measured after 24 hrs by ELISA relative to control; format: functional
Mus musculus [7] = test: Effect on KC 10 level in dust-mite-induced BALB/c mouse model of airway inflammation assessed as greater than 2 fold induction at 6 mg/kg, sc administered for 2 weeks and measured 24 hrs post-HDM challenge by MSD multiplex assay; format: functional, organism-based
Mus musculus [8] = test: Effect on IL-12p70 level in dust-mite-induced BALB/c mouse model of airway inflammation assessed as greater than 2 fold induction at 6 mg/kg, sc administered for 2 weeks and measured 24 hrs post-HDM challenge by MSD multiplex assay; format: functional, organism-based
Mus musculus [9] = test: Effect on MIP3alpha level in dust-mite-induced BALB/c mouse model of airway inflammation assessed as greater than 2 fold induction at 6 mg/kg, sc administered for 2 weeks and measured 24 hrs post-HDM challenge by MSD multiplex assay; format: functional, organism-based
Mus musculus [10] = test: Effect on IL-31 level in dust-mite-induced BALB/c mouse model of airway inflammation assessed as greater than 2 fold induction at 6 mg/kg, sc administered for 2 weeks and measured 24 hrs post-HDM challenge by MSD multiplex assay; format: functional, organism-based
Mus musculus [11] = test: Effect on IL-5 level in dust-mite-induced BALB/c mouse model of airway inflammation assessed as greater than 2 fold induction at 6 mg/kg, sc administered for 2 weeks and measured 24 hrs post-HDM challenge by MSD multiplex assay; format: functional, organism-based
Mus musculus [12] = test: Effect on TNF 1 level in dust-mite-induced BALB/c mouse model of airway inflammation assessed as greater than 2 fold induction at 6 mg/kg, sc administered for 2 weeks and measured 24 hrs post-HDM challenge by MSD multiplex assay; format: functional, organism-based
Mus musculus [13] = test: Effect on IL-21 level in dust-mite-induced BALB/c mouse model of airway inflammation assessed as greater than 2 fold induction at 6 mg/kg, sc administered for 2 weeks and measured 24 hrs post-HDM challenge by MSD multiplex assay; format: functional, organism-based
HBEC3-KT [14] = test: Immunomodulatory activity in human HBEC3-KT cells assessed as suppression of INFgamma-induced IL-33 at 10 uM preincubated for 30 mins followed by INFgamma stimulation and measured after 24 hrs by Western blot analysis; format: functional; conditions: 0.5 h
Mus musculus [15] = test: Effect on IL-6 level in dust-mite-induced BALB/c mouse model of airway inflammation assessed as greater than 2 fold induction at 6 mg/kg, sc administered for 2 weeks and measured 24 hrs post-HDM challenge by MSD multiplex assay; format: functional, organism-based
Mus musculus [16] = test: Antiinflammatory activity in house dust-mite-induced BALB/c mouse model of airway inflammation assessed as suppression of IL-33 abundance in lung tissue lysate at 6 mg/kg, sc administered for 2 weeks and measured 24 hrs post-HDM challenge by ELISA; format: functional
Mus musculus [17] = test: Effect on MCP1 level in dust-mite-induced BALB/c mouse model of airway inflammation assessed as greater than 2 fold induction at 6 mg/kg, sc administered for 2 weeks and measured 24 hrs post-HDM challenge by MSD multiplex assay; format: functional, organism-based
Mus musculus [18] = test: Effect on IL-17AF level in dust-mite-induced BALB/c mouse model of airway inflammation assessed as greater than 2 fold induction at 6 mg/kg, sc administered for 2 weeks and measured 24 hrs post-HDM challenge by MSD multiplex assay; format: functional, organism-based
Mus musculus [19] = test: Effect on IL-2 level in dust-mite-induced BALB/c mouse model of airway inflammation assessed as greater than 2 fold induction at 6 mg/kg, sc administered for 2 weeks and measured 24 hrs post-HDM challenge by MSD multiplex assay; format: functional, organism-based
Mus musculus [20] = test: Effect on IFNgamma level in dust-mite-induced BALB/c mouse model of airway inflammation assessed as greater than 2 fold induction at 6 mg/kg, sc administered for 2 weeks and measured 24 hrs post-HDM challenge by MSD multiplex assay; format: functional, organism-based
Mus musculus [21] = test: Effect on IL-25 level in dust-mite-induced BALB/c mouse model of airway inflammation assessed as greater than 2 fold induction at 6 mg/kg, sc administered for 2 weeks and measured 24 hrs post-HDM challenge by MSD multiplex assay; format: functional, organism-based
Mus musculus [22] = test: Effect on IL-10 level in dust-mite-induced BALB/c mouse model of airway inflammation assessed as greater than 2 fold induction at 6 mg/kg, sc administered for 2 weeks and measured 24 hrs post-HDM challenge by MSD multiplex assay; format: functional, organism-based
Mus musculus [23] = test: Effect on MIP2 level in dust-mite-induced BALB/c mouse model of airway inflammation assessed as greater than 2 fold induction at 6 mg/kg, sc administered for 2 weeks and measured 24 hrs post-HDM challenge by MSD multiplex assay; format: functional, organism-based
Mus musculus [24] = test: (§1) Antiinflammatory activity in house dust-mite-induced BALB/c mouse model of methacholine-induced airway hyperreactivity assessed as reduction in methacholine-induced tissue elastance at 6 mg/kg , ip administered for 2 weeks after methacholine-stimulation at 12 mg/ml measured 24 hrs post-HDM challenge; format: functional, organism-based
Mus musculus [25] = test: Effect on MIP1alpha level in dust-mite-induced BALB/c mouse model of airway inflammation assessed as greater than 2 fold induction at 6 mg/kg, sc administered for 2 weeks and measured 24 hrs post-HDM challenge by MSD multiplex assay; format: functional, organism-based
Mus musculus [26] = test: as §1, with “newtonian resistance” for “tissue elastance”; format: functional, organism-based
HBEC3-KT [27] = test: Cytotoxicity against human HBEC3-KT incubated for 24 hrs by LDH assay; format: functional
Mus musculus [28] = test: Effect on IL-23 level in dust-mite-induced BALB/c mouse model of airway inflammation assessed as greater than 2 fold induction at 6 mg/kg, sc administered for 2 weeks and measured 24 hrs post-HDM challenge by MSD multiplex assay; format: functional, organism-based
Mus musculus [29] = test: Effect on IP10 level in dust-mite-induced BALB/c mouse model of airway inflammation assessed as greater than 2 fold induction at 6 mg/kg, sc administered for 2 weeks and measured 24 hrs post-HDM challenge by MSD multiplex assay; format: functional, organism-based
Mus musculus [30] = test: Effect on IL-9 level in dust-mite-induced BALB/c mouse model of airway inflammation assessed as greater than 2 fold induction at 6 mg/kg, sc administered for 2 weeks and measured 24 hrs post-HDM challenge by MSD multiplex assay; format: functional, organism-based
Mus musculus [31] = test: Effect on IL-17F level in dust-mite-induced BALB/c mouse model of airway inflammation assessed as greater than 2 fold induction at 6 mg/kg, sc administered for 2 weeks and measured 24 hrs post-HDM challenge by MSD multiplex assay; format: functional, organism-based
Mus musculus [32] = test: Antiinflammatory activity in house dust-mite-induced BALB/c mouse model of airway inflammation assessed as suppression of total leukocyte count in BALF at 6 mg/kg, sc administered for 2 weeks and measured 24 hrs post-HDM challenge by Wright-Giemsa staining based microscopy; format: functional
Mus musculus [33] = test: (§2) Antiinflammatory activity in house dust-mite-induced BALB/c mouse model of methacholine-induced airway hyperreactivity assessed as reduction in methacholine-induced tissue damping at 6 mg/kg , ip administered for 2 weeks after methacholine-stimulation at 50 mg/ml measured 24 hrs post-HDM challenge; format: functional
Mus musculus [34] = test: Effect on IL-1beta level in dust-mite-induced BALB/c mouse model of airway inflammation assessed as greater than 2 fold induction at 6 mg/kg, sc administered for 2 weeks and measured 24 hrs post-HDM challenge by MSD multiplex assay; format: functional, organism-based
Mus musculus [35] = test: Effect on IL-17C level in dust-mite-induced BALB/c mouse model of airway inflammation assessed as greater than 2 fold induction at 6 mg/kg, sc administered for 2 weeks and measured 24 hrs post-HDM challenge by MSD multiplex assay; format: functional, organism-based
Mus musculus [36] = test: as §2, with “newtonian resistance” for “tissue damping”; format: functional
HBEC3-KT [37] = test: Antiinflammatory activity in human HBEC3-KT cells assessed as fold increase in IL-1RA expression at 10 uM measured after 24 hrs by ELISA relative to control; format: functional
[38] = Stability of the compound in human HBEC3-KT cells assessed as compound degradation ay 10 uM measured after 16 hrs by FRET assay relative to control; format: functional
Mus musculus [39] = test: Antiinflammatory activity in house dust-mite-induced BALB/c mouse model of airway inflammation assessed as suppression of total eosinophil count in BALF at 6 mg/kg, sc administered for 2 weeks and measured 24 hrs post-HDM challenge by Wright-Giemsa staining based microscopy; format: functional
Mus musculus [40] = test: Antiinflammatory activity in house dust-mite-induced BALB/c mouse model of methacholine-induced airway hyperreactivity assessed as reduction in methacholine-induced tissue elastance at 6 mg/kg , ip administered for 2 weeks after methacholine-stimulation at 50 mg/ml measured 24 hrs post-HDM challenge; format: functional
Mus musculus [41] = test: Antiinflammatory activity in house dust-mite-induced BALB/c mouse model of airway inflammation assessed as suppression of total neutrophil count in BALF at 6 mg/kg, sc administered for 2 weeks and measured 24 hrs post-HDM challenge by Wright-Giemsa staining based microscopy; format: functional
[42] = Retention time of the compound by HPLC analysis; format: physicochemical
HBEC3-KT [43] = test: Antiinflammatory activity in human HBEC3-KT cells assessed as fold increase in STC1 expression at 10 uM measured after 24 hrs by ELISA relative to control; format: functional
Mus musculus [44] = test: Effect on IL-22 level in dust-mite-induced BALB/c mouse model of airway inflammation assessed as greater than 2 fold induction at 6 mg/kg, sc administered for 2 weeks and measured 24 hrs post-HDM challenge by MSD multiplex assay; format: functional, organism-based
Mus musculus [45] = test: Antiinflammatory activity in house dust-mite-induced BALB/c mouse model of methacholine-induced airway hyperreactivity assessed as reduction in methacholine-induced tissue damping at 6 mg/kg , ip administered for 2 weeks after methacholine-stimulation at 12 mg/ml measured 24 hrs post-HDM challenge; format: functional, organism-based

## H-VQRWLIVWRIRK-OH
Mus musculus [1]
  Activity: inactive
HBEC3-KT [2]
  Activity: inactive
Mus musculus [3]
  Activity: inactive
Mus musculus [4]
  Activity: inactive
Mus musculus [5]
  Activity: inactive
HBEC3-KT [6]
  fold change (FC): 3.8
Mus musculus [7]
  Activity: inactive
Mus musculus [8]
  Activity: inactive
Mus musculus [9]
  Activity: inactive
Mus musculus [10]
  Activity: inactive
Mus musculus [11]
  Activity: inactive
Mus musculus [12]
  Activity: inactive
Mus musculus [13]
  Activity: inactive
HBEC3-KT [14]
  Activity: 85%
Mus musculus [15]
  Activity: inactive
Mus musculus [16]
  Activity: >40%
Mus musculus [17]
  Activity: inactive
Mus musculus [18]
  Activity: inactive
Mus musculus [19]
  Activity: inactive
Mus musculus [20]
  Activity: inactive
Mus musculus [21]
  Activity: inactive
Mus musculus [22]
  Activity: inactive
Mus musculus [23]
  Activity: inactive
Mus musculus [24]
  Activity: Active
Mus musculus [25]
  Activity: inactive
Mus musculus [26]
  Activity: Active
HBEC3-KT [27]
  Activity: <=15%
Mus musculus [28]
  Activity: inactive
Mus musculus [29]
  Activity: inactive
Mus musculus [30]
  Activity: inactive
Mus musculus [31]
  Activity: inactive
Mus musculus [32]
  Activity: 66%
Mus musculus [33]
  Activity: Active
Mus musculus [34]
  Activity: inactive
Mus musculus [35]
  Activity: inactive
Mus musculus [36]
  Activity: Active
HBEC3-KT [37]
  fold change (FC): 2.6
[38]
  Activity: <5%
Mus musculus [39]
  Activity: 63%
Mus musculus [40]
  Activity: Active
Mus musculus [41]
  Activity: 60%
[42]
  Retention_time: 16.16 min
HBEC3-KT [43]
  fold change (FC): 4
Mus musculus [44]
  Activity: inactive
Mus musculus [45]
  Activity: Active
